Experimental data from ChEMBL document CHEMBL3785000, “Antitubercular Lanostane Triterpenes from Cultures of the Basidiomycete Ganoderma sp. BCC 16642” (J Nat Prod, 2016).
Values after ≈ are worked out from the molar mass of the structure shown.

Legend:
[1] = tested on: Mycobacterium tuberculosis; test: Antitubercular activity against Mycobacterium tuberculosis H37Ra infected in African green monkey Vero cells measured daily for 8 days by green fluorescent protein microplate assay; assay type: functional; details: 192 h
Vero = test: Cytotoxicity against African green monkey Vero cells by green fluorescent protein microplate assay; assay type: cell-based; details: Chlorocebus sabaeus

Compound	MIC [1] [µg/mL]	IC50 (Vero) [µM]
CC(=O)O[C@@H](C/C=C(\C)C(=O)O)[C@@H](C)[C@H]1C[C@H](OC(C)=O)[C@@]2(C)C3=C(CC[C@]12C)[C@@]1(C)CC[C@H](OC(C)=O)C(C)(C)[C@@H]1CC3	3.13 (≈ 5.09 µM)	15
CC(=O)O[C@@H](C/C=C(\C)C(=O)O)[C@@H](C)[C@H]1CC[C@@]2(C)C3=C(CC[C@]12C)[C@@]1(C)CCC(=O)C(C)(C)[C@@H]1CC3=O	50 (≈ 94.9 µM)	91
Cc1c2ccncc2c(C)c2c1[nH]c1ccccc12 [ELLIPTECINE]		3.3
CO[C@@H]1C[C@H]2C(C)(C)[C@@H](OC(C)=O)CC[C@]2(C)C2=C1[C@]1(C)[C@@H](OC(C)=O)C[C@H]([C@H](C)[C@H](C/C=C(\C)C(=O)O)OC(C)=O)[C@@]1(C)CC2	12.5 (≈ 19.4 µM)	26
CC(=O)O[C@@H](C/C=C(\C)C(=O)O)[C@@H](C)[C@H]1CC[C@@]2(C)C3=C(CC[C@]12C)[C@@]1(C)CC[C@@H](OC(C)=O)C(C)(C)[C@@H]1CC3=O	> 50	33
CC(=O)O[C@@H](C/C=C(\C)C(=O)O)[C@@H](C)[C@H]1CC[C@@]2(C)C3=C(CC[C@]12C)[C@@]1(C)CCC(=O)C(C)(C)[C@@H]1CC3	> 50	93
C/C(=C\CC[C@@H](C)[C@H]1C[C@H](O)[C@@]2(C)C3=CC[C@H]4C(C)(C)C(=O)CC[C@]4(C)C3=CC[C@]12C)C(=O)O	50 (≈ 107 µM)	> 107
CC(=O)O[C@@H](C/C=C(\C)C(=O)O)[C@@H](C)[C@H]1C[C@H](O)[C@@]2(C)C3=CC[C@H]4C(C)(C)C(=O)CC[C@]4(C)C3=CC[C@]12C	> 50	> 95
CC(=O)O[C@H]1CC[C@]2(C)C3=C([C@H](O)C[C@H]2C1(C)C)[C@]1(C)CC[C@H]([C@H](C)CC/C=C(\C)C(=O)O)[C@@]1(C)CC3	25 (≈ 48.6 µM)	72
CC(=O)O[C@@H](C/C=C(\C)C(=O)O)[C@@H](C)[C@H]1C[C@H](OC(C)=O)[C@@]2(C)C3=C(CC[C@]12C)[C@@]1(C)CCC(=O)C(C)(C)[C@@H]1CC3	> 50	86
CC(=O)O[C@@H](C/C=C(\C)C(=O)O)[C@@H](C)[C@H]1C[C@H](OC(C)=O)[C@@]2(C)C3=C(CC[C@]12C)[C@@]1(C)CC[C@H](OC(C)=O)C(C)(C)[C@@H]1C[C@H]3O	3.13 (≈ 4.96 µM)	28
CC(=O)O[C@@H](C/C=C(\C)C(=O)O)[C@@H](C)[C@H]1CC[C@@]2(C)C3=CC[C@H]4C(C)(C)[C@@H](OC(C)=O)CC[C@]4(C)C3=CC[C@]12C	12.5 (≈ 22.5 µM)	32
CC(=O)O[C@H]1CC[C@]2(C)C3=C(CC[C@H]2C1(C)C)[C@]1(C)[C@@H](OC(C)=O)C[C@H]([C@H](C)CC/C=C(\C)C(=O)O)[C@@]1(C)CC3	0.781 (≈ 1.4 µM)	22
CC(=O)O[C@@H](C/C=C(\C)C(=O)O)[C@@H](C)[C@H]1C[C@H](OC(C)=O)[C@@]2(C)C3=CC[C@H]4C(C)(C)[C@@H](OC(C)=O)CC[C@]4(C)C3=CC[C@]12C	0.781 (≈ 1.27 µM)	16
CO[C@@H]1C[C@H]2C(C)(C)C(=O)CC[C@]2(C)C2=C1[C@]1(C)CC[C@H]([C@H](C)[C@H](C/C=C(\C)C(=O)O)OC(C)=O)[C@@]1(C)CC2	50 (≈ 92.1 µM)	36
CC(=O)O[C@@H](C/C=C(\C)C(=O)O)[C@@H](C)[C@H]1CC[C@@]2(C)C3=CC[C@H]4C(C)(C)[C@H](O)CC[C@]4(C)C3=CC[C@]12C	50 (≈ 97.5 µM)	> 98
CC(=O)O[C@@H](C/C=C(\C)C(=O)O)[C@@H](C)[C@H]1CC[C@@]2(C)C3=C(CC[C@]12C)[C@@]1(C)CCC(=O)C(C)(C)[C@@H]1C[C@H]3O	> 50	> 95
CC(=O)O[C@H]1CC[C@]2(C)C3=C([C@H](O)C[C@H]2C1(C)C)[C@]1(C)[C@@H](OC(C)=O)C[C@H]([C@H](C)CC/C=C(\C)C(=O)O)[C@@]1(C)CC3	1.56 (≈ 2.72 µM)	32
CC(=O)O[C@@H](C/C=C(\C)C(=O)O)[C@@H](C)[C@H]1C[C@H](OC(C)=O)[C@@]2(C)C3=C(CC[C@]12C)[C@@]1(C)CC[C@H](O)C(C)(C)[C@@H]1CC3	50 (≈ 87.3 µM)	30
CC(=O)O[C@@H](C/C=C(\C)C(=O)O)[C@@H](C)[C@H]1C[C@H](OC(C)=O)[C@@]2(C)C3=C(CC[C@]12C)[C@@]1(C)CCC(=O)C(C)(C)[C@@H]1C[C@H]3O	> 50	> 85
CC(=O)O[C@@H](C/C=C(\C)C(=O)O)[C@@H](C)[C@H]1C[C@H](OC(C)=O)[C@@]2(C)C3=CC[C@H]4C(C)(C)[C@H](OC(C)=O)CC[C@]4(C)C3=CC[C@]12C [GANODERIC ACID T]	6.25 (≈ 10.2 µM)	28
NNC(=O)c1ccncc1 [ISONIAZID]	0.094 (≈ 0.685 µM)	
CO[C@@H]1C[C@H]2C(C)(C)[C@@H](OC(C)=O)CC[C@]2(C)C2=C1[C@]1(C)[C@@H](O)C[C@H]([C@H](C)CC/C=C(\C)C(=O)O)[C@@]1(C)CC2	50 (≈ 91.8 µM)	32
CO[C@@H]1C[C@H]2C(C)(C)[C@@H](OC(C)=O)CC[C@]2(C)C2=C1[C@]1(C)CC[C@H]([C@H](C)[C@H](C/C=C(\C)C(=O)O)OC(C)=O)[C@@]1(C)CC2	25 (≈ 42.6 µM)	28
CC(=O)O[C@@H]1CC[C@]2(C)C3=CC[C@]4(C)[C@@H]([C@H](C)CC/C=C(\C)C(=O)O)CC[C@@]4(C)C3=CC[C@H]2C1(C)C	> 50	89
CC(=O)O[C@@H](C/C=C(\C)C(=O)O)[C@@H](C)[C@H]1CC[C@@]2(C)C3=CC[C@H]4C(C)(C)C(=O)CC[C@]4(C)C3=CC[C@]12C	> 50	35
